# Experiments:
# Cytotoxicity, MTT assay = assay type: cell-based, murine; conditions: mouse, Neuro-2a neuroblastoma cells, read-out: Cytotoxic activity EC50
# Procedure: The murine neuroblastoma cell line Neuro-2a (CCL-131) was purchased from American Type Culture Collection (ATCC®) (Manassas, VA, USA). Cells were cultured in Dulbecco’s Modified Eagle Medium (Biolot, St. Petersburg, Russia). The medium contained 10% fetal bovine serum (Biolot, St. Petersburg, Russia) and 1% penicillin/streptomycin (Biolot, St. Petersburg, Russia). Cells were incubated at 37 °C in a humidified atmosphere containing 5% (v/v) CO2.
# Stock solutions of polyphenolic compounds were prepared in DMSO at a concentration of 10 mM. […]
# We incubated Neuro-2a cells (1 × 10^4 cells/well) at 37 °C in a CO2 incubator for 24 h until they formed an adherent monolayer. Then, 20 μL of the tested solution was loaded onto the cells and incubated for 24 h. After incubation, the medium containing the polyphenolic test compounds was replaced by 100 μL of fresh medium. Then, we added 10 μL of MTT (3-(4,5-dimethylthiazol-2-yl)-2,5-diphenyltetrazolium bromide) (Sigma-Aldrich, St. Louis, MO, USA) stock solution (5 mg/mL) to each well and incubated the microplate for 4 h. Then, 100 μL of SDS-HCl solution (1 g SDS/10 mL dH2O/17 μL 6 M HCl) was added to each well, followed by incubation for 18 h. We measured the absorbance of the converted dye formazan on a Multiskan FC microplate photometer (Thermo Scientific, Waltham, MA, USA) at a wavelength of 570 nm. We performed all experiments in triplicate and expressed the cytotoxic activity as percent of living cells.
# [1] = test system: PQ-treated Neuro-2a cells; experiment: PQ-induced neurotoxicity, cell viability (MTT); assay type: cell-based, murine; conditions: PQ 1 mM
# Procedure: After 24 h of adhesion, Neuro-2a cells (1 × 10^4 cells/well) were treated with polyphenolic compounds at concentrations of 0.01–10 μM for 1 h. Subsequently, 1 mM of PQ, 10 μM rotenone or 80 μM of 6-OHDA (Sigma-Aldrich, St. Louis, MO, USA) were added. We used MTT assay to determine the percentage of living cells (cell viability) after 24 h of incubation. Cells incubated without inductors or with inductors were used as positive and negative control, respectively. The results are presented as percentages of the positive control value.
# [2] = test system: PQ-treated Neuro-2a cells; experiment: ROS level in PQ-treated cells (H2DCF-DA); assay type: cell-based, murine; conditions: PQ 1 mM, 3 h
# Procedure: After 24 h of adhesion, Neuro-2a cells (1 × 10^4 cells/well) were incubated with compounds (0.01–10 µM) for 1 h. Then, we added rotenone (10 μM), 6-OHDA (80 μM), or PQ (1 mM) to each well and incubated cells for 1 h, 1 h, or 3 h, respectively. To evaluate the level of intracellular ROS, we added 20 µL of 2,7-dichlorodihydrofluorescein diacetate solution ([…], H2DCF-DA, Molecular Probes, Eugene, OR, USA) to each well, so that the final concentration was 10 µM, and incubated the microplate at 37 °C for an additional 30 min. Quercetin was used as a reference compound.
# [3] = design: method as in PMID 31004693; conditions: 30 min; mean ± SEM, n = 3; previously published; read-out: DPPH-Scavenging Effect SC50; cited from earlier work
# [4] = design: method as in PMID 31004693; conditions: mean ± SEM, n = 3; previously published; cited from earlier work
# [5] = test system: LPS- and Aβ-induced neurotoxicity; design: method as in PMID 21708076; conditions: cited from earlier work
# TNF-α, IL-1, and IL-6 = test system: TNF-α, IL-1, and IL-6; design: method as in PMID 21708076; conditions: cited from earlier work
# [6] = test system: cerebral global-ischemia model; conditions: cited from earlier work
# rats = test system: rats; design: method as in PMID 31693927, doi:10.1016/j.jff.2017.05.002; conditions: cited from earlier work
smiles,measurement,setting,value
"CC(C)=CCC/C(C)=C/Cc1c(O)c(O)cc2c1O[C@H]1c3cc(CC=C(C)C)c(O)cc3OC[C@@H]21 [Compound 6, (6aR,11aR)-2-isoprenyl-6a,11a-dihydrolespedezol A2]",EC50 at 24 h,"Cytotoxicity, MTT assay",40.6 µM
same,Effect on percentage of living cells after treatment with PQ,"[1]; compounds 0.01–10 μM, 1 h pre-treatment, MTT after 24 h",significantly increased
same,Concentration range in which the neuroprotective effect was detected,[1]; MTT,0.01 to 1 µM
same,Increase in percentage of living cells after treatment with PQ,"[1]; compound 1 μM, MTT",17%
same,Effect on ROS level in PQ-treated cells,[2],slightly decreased
same,EC50,[3],21.8 ± 2 µM
same,FRAP,[4],1.43 ± 0.06 mol (Fe^2+)/mol (polyphenolic compound X)
O=c1oc2cc(O)ccc2c2oc3cc(O)ccc3c12 [Coumestrol],Neurotoxicity induced by LPS and amyloid-beta peptide (Aβ),[5],attenuated
same,"Production of inflammatory cytokines TNF-α, IL-1, and IL-6","TNF-α, IL-1, and IL-6",inhibited
same,Neuroprotection in a cerebral global-ischemia model,[6],effective neuroprotection
same,Mitochondrial activity,rats,modulated
same,Oxidative stress,rats,decreased

# — paper PMC9025851, “Polyphenolic Compounds from Lespedeza bicolor Protect Neuronal Cells from Oxidative Stress” (Antioxidants, 2022)
